Laboratory results as given in patent US20230312528A1, “2-OXO-IMIDAZOLIDINE-4-CARBOXAMIDES AS NAV1.8 INHIBITORS” (Merck Sharp & Dohme LLC, priority 2020, published 2023).

Molecular target: human NaV1.8 (Homo sapiens (Human), UniProt Q9Y5Y9)
Assay: Nav1.8 Qube automated patch-clamp assay
Format: cell-based
Details: human NaV1.8 stably expressed in HEK 293 cells; automated 384-well patch-clamp; resting or inactivated state not specified
Procedure: Compounds were tested on human NaV1.8 and NaV1.5 channels stably expressed in human embryo kidney (HEK) 293 cells. Sodium current measurements on Qube® were conducted as follows: automated 384-well patch-clamp assays on the Qube® platform (Sophion Biosciences) were used to measure the inhibition of sodium flow through human NaV1.8 and NaV1.5 channels. Whole-cell voltage-clamp recordings were performed in QChips® (Sophion Biosciences) at room temperature. NaV1.8 current measurements on Qube® were obtained as follows: NaV1.8 currents were elicited with a 10 second 1 Hertz (Hz) pulse train from a holding potential of −90 millivolts (mV), delivered to the cells once per minute in the control condition (DMSO only) and after compound addition. The 1 hertz pulse train stimulation consisted of ten test pulses to 10 millivolt (mV) for 20 milliseconds (ms), each of which was followed by a 980 millisecond repolarization to −67 millivolts. At the end of the 10 second pulse train stimulation, a 5 second hyperpolarization step to −100 millivolt (mV) was used to recover NaV1.8 from fast inactivation. The peak currents elicited by the 1st and 10th test pulses were used to determine IC50 values for resting inhibition and inactivated state inhibition. NaV1.5 current measurements on Qube® were obtained as follows: NaV1.5 currents were elicited with a 20 second 3 Hertz pulse train in the control condition (DMSO only) and after compound addition. The pulse train consisted of sixty 20 millisecond test pulses to 0 millivolt from a holding potential of −80 millivolt (mV). The average peak currents elicited by the last 3 test pulses were used to determine IC50 values for NaV1.5 inhibition.
The following buffers were used for the Qube® recordings: External buffer for NaV1.8 Qube® recording: 150 NaCl, 2 CaCl2, 5 KCl, 1 Mg Cl2, 10 HEPES, 12 Dextrose; External buffer for Qube® NaV1.5 recording: 120 N-Methyl-D-Glucamine, 40 NaCl, 1 KCl, 2.7 CaCl2, 5 HEPES, 0.5 MgCl2; and Internal buffer for Qube® recording: 120 CsF, 30 CsCl, 10 EGTA, 5 HEPES, 5 NaF, 2 MgCl2.
For all Qube® experiments offline analysis was used to determine percent inhibition as a function of drug concentration. IC50 values were determined by fitting to the Hill equation.

human NaV1.8, sequence (Q9Y5Y9 whole entry): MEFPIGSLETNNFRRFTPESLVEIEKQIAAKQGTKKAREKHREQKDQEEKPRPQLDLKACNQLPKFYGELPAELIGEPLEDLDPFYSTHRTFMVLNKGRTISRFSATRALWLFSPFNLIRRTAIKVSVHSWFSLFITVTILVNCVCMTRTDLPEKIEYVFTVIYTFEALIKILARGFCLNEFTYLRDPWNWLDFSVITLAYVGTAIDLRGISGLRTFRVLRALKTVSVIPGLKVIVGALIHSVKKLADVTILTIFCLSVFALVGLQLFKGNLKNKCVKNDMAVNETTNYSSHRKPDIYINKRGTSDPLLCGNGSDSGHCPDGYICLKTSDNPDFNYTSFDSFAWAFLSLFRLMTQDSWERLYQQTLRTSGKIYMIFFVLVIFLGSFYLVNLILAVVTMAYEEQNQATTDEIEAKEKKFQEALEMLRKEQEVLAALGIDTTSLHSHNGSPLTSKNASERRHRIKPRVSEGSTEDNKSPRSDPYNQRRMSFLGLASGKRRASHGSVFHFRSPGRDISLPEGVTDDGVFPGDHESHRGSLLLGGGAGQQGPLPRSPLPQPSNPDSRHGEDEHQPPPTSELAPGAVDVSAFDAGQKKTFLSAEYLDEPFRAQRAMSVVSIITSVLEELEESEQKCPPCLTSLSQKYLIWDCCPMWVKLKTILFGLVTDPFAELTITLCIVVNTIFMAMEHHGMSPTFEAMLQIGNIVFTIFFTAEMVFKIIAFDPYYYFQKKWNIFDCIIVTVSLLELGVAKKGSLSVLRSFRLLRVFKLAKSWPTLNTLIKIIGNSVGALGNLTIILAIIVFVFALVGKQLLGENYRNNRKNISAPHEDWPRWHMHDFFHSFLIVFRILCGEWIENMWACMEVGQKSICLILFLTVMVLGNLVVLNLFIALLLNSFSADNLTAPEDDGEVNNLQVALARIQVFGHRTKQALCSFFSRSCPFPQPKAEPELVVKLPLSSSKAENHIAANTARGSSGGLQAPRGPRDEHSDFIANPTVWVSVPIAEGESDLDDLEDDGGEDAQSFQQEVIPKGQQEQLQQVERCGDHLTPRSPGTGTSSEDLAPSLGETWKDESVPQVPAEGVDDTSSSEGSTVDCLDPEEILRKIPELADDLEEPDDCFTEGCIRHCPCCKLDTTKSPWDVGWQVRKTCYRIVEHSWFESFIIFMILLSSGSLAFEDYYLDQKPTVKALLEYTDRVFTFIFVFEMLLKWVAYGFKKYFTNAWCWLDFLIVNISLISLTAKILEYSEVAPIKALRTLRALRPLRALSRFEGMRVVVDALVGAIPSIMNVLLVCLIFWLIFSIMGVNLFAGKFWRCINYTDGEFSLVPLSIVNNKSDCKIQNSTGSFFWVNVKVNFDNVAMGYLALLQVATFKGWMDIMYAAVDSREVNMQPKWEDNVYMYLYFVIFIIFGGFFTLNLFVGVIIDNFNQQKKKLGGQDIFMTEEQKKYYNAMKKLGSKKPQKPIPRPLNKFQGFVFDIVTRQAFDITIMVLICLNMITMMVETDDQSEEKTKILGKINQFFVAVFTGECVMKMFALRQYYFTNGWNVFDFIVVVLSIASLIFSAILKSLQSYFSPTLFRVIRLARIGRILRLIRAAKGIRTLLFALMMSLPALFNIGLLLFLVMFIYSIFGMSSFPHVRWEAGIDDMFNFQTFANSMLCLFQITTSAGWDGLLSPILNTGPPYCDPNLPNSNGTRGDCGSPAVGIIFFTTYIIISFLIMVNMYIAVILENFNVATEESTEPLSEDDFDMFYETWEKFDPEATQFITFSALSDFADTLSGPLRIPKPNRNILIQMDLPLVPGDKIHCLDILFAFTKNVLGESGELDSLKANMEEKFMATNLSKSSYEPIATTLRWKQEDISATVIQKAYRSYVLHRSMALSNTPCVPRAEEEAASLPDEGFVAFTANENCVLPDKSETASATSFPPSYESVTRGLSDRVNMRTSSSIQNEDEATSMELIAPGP

| IC50 [nM] | SMILES |
| --- | --- |
| 22 | O=C1NC[C@@H](C(=O)NC(COc2ccc(F)c(Cl)c2)c2ccc(F)c(Cl)c2)N1 (single isomer, unassigned) [Example 1B, (S)—N—((R or S)-2-(3-chloro-4-fluorophenoxy)-1-(3-chloro-4-fluorophenyl)ethyl)-2-oxoimidazolidine-4-carboxamide] |
| 3.8 | Cc1nc2cc(C(NC(=O)[C@@H]3CNC(=O)N3)c3ccc(F)c(Cl)c3)ccc2s1 (single isomer, unassigned) [Example 66B, (S)—N—((R or S)-(3-chloro-4-fluorophenyl)(2-methylbenzo[d]thiazol-5-yl)methyl)-2-oxoimidazolidine-4-carboxamide] |
| 1280 | CS(=O)(=O)c1ccc(C(NC(=O)[C@@H]2CNC(=O)N2)c2ccc(F)c(Cl)c2)cc1 (single isomer, unassigned) [Example 85B, (S)-N-((R or S)-(3-chloro-4-fluorophenyl)(4-(methylsulfonyl)phenyl)methyl)-2-oxoimidazolidine-4-carboxamide] |
| 14700 | O=C(NC(c1ccc(Cl)cc1)c1ccc(Cl)cc1)C1CNC(=O)N1CCO (single isomer, unassigned) [Example 21B, (R or S)—N-(bis(4-chlorophenyl)methyl)-3-(2-hydroxyethyl)-2-oxoimidazolidine-4-carboxamide] |
| 4 | O=C1NC[C@@H](C(=O)NC(COc2ccc(F)c(Cl)c2)c2ccc(F)c(Cl)c2)N1 (single isomer, unassigned) [Example 1A, (S)—N—((R or S)-2-(3-chloro-4-fluorophenoxy)-1-(3-chloro-4-fluorophenyl)ethyl)-2-oxoimidazolidine-4-carboxamide] |
| 21 | O=C1NC[C@@H](C(=O)NC(c2ccc(OC(F)(F)F)cc2)c2ccc(Cl)c(C3CC3)n2)N1 (single isomer, unassigned) [Example 40A, (S)-N-((R or S)-(5-chloro-6-cyclopropylpyridin-2-yl)(4-(trifluoromethoxy)phenyl)methyl)-2-oxoimidazolidine-4-carboxamide] |
| 93 | O=C1NC[C@@H](C(=O)NC(c2ccc(Cl)cc2)c2ccc3cn[nH]c3c2)N1 (single isomer, unassigned) [Example 82B, (S)-N-((R or S)-(4-chlorophenyl)(1H-indazol-6-yl)methyl)-2-oxoimidazolidine-4-carboxamide] |
| 100 | O=C1NC[C@@H](C(=O)NC(c2ccc(Cl)cc2)c2ccn3nccc3c2)N1 (single isomer, unassigned) [Example 80A, (S)—N—((R or S)-(4-chlorophenyl)(pyrazolo[1,5-a]pyridin-5-yl)methyl)-2-oxoimidazolidine-4-carboxamide] |
| 3.8 | O=C1NC[C@@H](C(=O)NC(c2ccc(Cl)cc2)c2ccc3c(c2)CC3(F)F)N1 (single isomer, unassigned) [Example 90, (S)-N-((R or S)-(4-chlorophenyl)(7,7-difluorobicyclo[4.2.0]octa-1(6),2,4-trien-3-yl)methyl)-2-oxoimidazolidine-4-carboxamide] |
| 5.2 | O=C1NC[C@@H](C(=O)NC(c2ccc(OC(F)(F)F)c(Cl)c2)c2coc(C(F)(F)F)n2)N1 (single isomer, unassigned) [Example 47A, (S)-N-((R or S)-(3-chloro-4-(trifluoro-methoxy)phenyl)(2-(trifluoromethyl)oxazo 1-4-yl)methyl)-2-oxoimidazolidine-4-carboxamide] |
| 0.2 | O=C1NC[C@@H](C(=O)NC(c2ccc(F)c(Cl)c2)c2cc3cc(Cl)ccc3o2)N1 (single isomer, unassigned) [Example 73A, (S)-N-((R or S)-(3-chloro-4-fluorophenyl)(5-chlorobenzofuran-2-yl)methyl)-2-oxoimidazolidine-4-carboxamide] |

Further lines, the compound ahead of its results:

| SMILES | IC50 [nM] |
| --- | --- |
| O=C1NC[C@@H](C(=O)NC(c2cnc(C(F)(F)F)c(Cl)c2)c2ccc(Cl)c(C(F)F)n2)N1 (single isomer, unassigned) [Example 3B, (S)—N—((R or S)-(5-chloro-6-(difluoromethyl)pyridin-2-yl)(5-chloro-6-(trifluoromethyl)pyridin-3-yl)methyl)-2-oxoimidazolidine-4-carboxamide] | 2.7 |
| CC1(C)CC(C(NC(=O)[C@@H]2CNC(=O)N2)c2ccc(Cl)cc2)CCN1CC(F)(F)F (single isomer, unassigned) [Example 91B, (4S)—N—((R or S)(4-chlorophenyl)((R or S)2,2-dimethyl-1-(2,2,2-trifluoroethyl)piperidin-4-yl)methyl)-2-oxoimidazolidine-4-carboxamide] | 899 |
| O=C1NC[C@@H](C(=O)NC(c2cnc(OC(F)F)s2)c2ccc(F)c(Cl)c2F)N1 (single isomer, unassigned) [Example 36B, (S)-N-((R or S)-(3-chloro-2,4-difluorophenyl)(2-(difluoromethoxy)thiazol-5-yl)methyl)-2-oxoimidazolidine-4-carboxamide] | 186 |
| O=C1NC[C@@H](C(=O)NC(c2ccc(F)c(Cl)c2F)C2CCCCN2CC(F)(F)F)N1 (single isomer, unassigned) [Example 58C, (S)-N-((R or S)-(3-chloro-2,4-difluorophenyl) ((R or S)-1-(2,2,2-trifluoroethyl)piperidin-2-yl)methyl)-2-oxoimidazolidine-4-carboxamide] | 130 |
| O=C1NC[C@@H](C(=O)NC(c2ccc(F)c(Cl)c2F)[C@@H]2CC[C@@H](C(F)(F)F)CO2)N1 (single isomer, unassigned) [Example 8B, (S)—N—((R or S)-(3-chloro-2,4-difluorophenyl)((trans)-5-(trifluoromethyl)tetrahydro-2H-pyran-2-yl)methyl)-2-oxoimidazolidine-4-carboxamide] | 8.4 |
| O=C1NC[C@@H](C(=O)NC(c2cnc(OC(F)F)s2)c2ccc(F)c(Cl)c2F)N1 (single isomer, unassigned) [Example 36A, (S)-N-((R or S)-(3-chloro-2,4-difluorophenyl)(2-(difluoromethoxy)thiazol-5-yl)methyl)-2-oxoimidazolidine-4-carboxamide] | 12 |
| CC1(C)CC(C(NC(=O)[C@@H]2CNC(=O)N2)c2ccc(F)c(Cl)c2)C1C(F)(F)F (stereo partly drawn) [Example 68, (4S)-N-((3-chloro-4-fluorophenyl)(3,3-dimethyl-2-(trifluoromethyl)cyclobutyl)methyl)-2-oxoimidazolidine-4-carboxamide] | 604 |
| O=C1NC[C@@H](C(=O)NC(c2ccc(F)c(Cl)c2F)C2COC(C(F)(F)F)C2)N1 (single isomer, unassigned) [Example 79H, (S)-N-((R or S)-(3-chloro-2,4-difluoro-phenyl)((cis or trans)-5-(trifluoromethyl)tetrahydrofuran-3-yl)methyl)-2-oxoimidazolidine-4-carboxamide] | 3860 |
| O=C1NC[C@@H](C(=O)NC(c2cnc(OC(F)F)nc2)c2ccc(F)c(Cl)c2F)N1 (single isomer, unassigned) [Example 64B, (S)-N-((R or S)-(3-chloro-2,4-difluorophenyl)(2-(difluoromethoxy)pyrimidin-5-yl)methyl)-2-oxoimidazolidine-4-carboxamide] | 805 |
| O=C1NC[C@@H](C(=O)NC(CC2CCCCC2)c2ccc(F)c(Cl)c2F)N1 (single isomer, unassigned) [Example 54B, (S)-N-((R or S)-1-(3-chloro-2,4-difluorophenyl)-2-cyclohexylethyl)-2-oxoimidazolidine-4-carboxamide] | 50 |
| O=C1NC[C@@H](C(=O)NC(c2cnc(OC(F)F)nc2)c2ccc(F)c(Cl)c2F)N1 (single isomer, unassigned) [Example 64A, (S)-N-((R or S)-(3-chloro-2,4-difluorophenyl)(2-(difluoromethoxy)pyrimidin-5-yl)methyl)-2-oxoimidazolidine-4-carboxamide] | 79 |
| O=C1NC[C@@H](C(=O)NC(c2ccc(F)c(Cl)c2)[C@H]2CC[C@H](C(F)(F)F)CC2)N1 (single isomer, unassigned) [Example 32A, (4S)—N—((R or S)-(3-chloro-4-fluorophenyl)(trans-4-(trifluoromethyl)cyclohexyl)methyl)-2-oxoimidazolidine-4-carboxamide] | 3.4 |
| O=C1NC[C@@H](C(=O)NC(c2ccc(F)c(Cl)c2F)C2COC(C(F)(F)F)C2)N1 (single isomer, unassigned) [Example 79E, (S)-N-((R or S)-(3-chloro-2,4-difluoro-phenyl)((cis or trans)-5-(trifluoromethyl)tetrahydrofuran-3-yl)methyl)-2-oxoimidazolidine-4-carboxamide] | 49 |
